Literature values as cited in US7521440B2, “Targeted oxidative therapeutic formulation” (Torquin, LLC, priority 2001, dated 2009).

How the values were obtained:
[1] = test system: peroxide-sensitive E. coli; conditions: infused into the blood of infected rabbits
E. coli = conditions: increasing peroxide concentration ex-vivo in rabbit or human blood

## OO [hydrogen peroxide, Hydrogen peroxide]
[1]
  bactericidal effect: no bactericidal effect
E. coli
  direct bactericidal activity: no evidence of direct bactericidal activity
